Experimental data published in patent publication US5436260A, “Angiotensin II receptor antagonists” (Warner-Lambert Company, priority 1994, dated 1995).
Where a name gives a salt, the structure may show the parent alone.

molecular target: T1, AT1 receptor (Rattus norvegicus, UniProt P25095); experiment: [^3 H]angiotensin II binding to rat liver membranes (AT1 test); details: inhibition of [^3 H]angiotensin II binding
T1 construct: rat liver membranes; from tissue; host or cells: rat liver membranes
T1 sequence (P25095 1-359): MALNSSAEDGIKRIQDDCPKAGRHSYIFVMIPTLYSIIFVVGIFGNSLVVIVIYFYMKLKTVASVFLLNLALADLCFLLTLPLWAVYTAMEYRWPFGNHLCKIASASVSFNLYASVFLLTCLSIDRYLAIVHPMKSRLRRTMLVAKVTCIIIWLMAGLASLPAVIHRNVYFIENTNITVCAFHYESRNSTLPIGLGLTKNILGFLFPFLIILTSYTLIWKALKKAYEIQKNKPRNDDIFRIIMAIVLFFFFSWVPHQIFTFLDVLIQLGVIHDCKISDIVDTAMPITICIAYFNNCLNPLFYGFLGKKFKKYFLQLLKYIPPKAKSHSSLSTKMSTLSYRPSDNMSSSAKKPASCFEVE
Description: The compounds of Formula I or Ia are antagonists of angiotensin II. Dudley, D. T., et al, Molecular Pharmacology 1990;38:370-377 reported the existence of 2 subclasses of angiotensin II binding sites in rabbit adrenal gland and uterus and in the rat liver which differ in their tissue distribution and affinity for various peptide and nonpeptide ligands. Thus, the compounds of Formula I or Ia were tested for their ability to inhibit [^3 H]angiotensin II binding to rat liver membranes (AT1 test) according to the methods described by Dudley, D. T., et al, Molecular Pharmacology 1990;38:370-7. […] It is well established that compounds which antagonize the effect of angiotensin II at the AT1 receptor have value for treatment of hypertension and heart failure.

Compound	IC50 [nM]
CCCCc1ncc(/C=C2/C(=O)N(CCCC)C(=O)N2Cc2c(C)noc2C)n1Cc1ccc(C(=O)OC)cc1 [Example 69, Methyl Z-4-[[2-butyl-5-[[1-butyl-3-[(3,5-dimethyl-4-isoxazolyl)methyl]-2,5-dioxo-4-imidazolidinylidene]methyl]-1H-imidazol-1-yl]methyl]benzoate monohydrochloride]	198
CCCCc1ncc(/C=C2/C(=O)NC(=O)N2CCCC)n1Cc1ccc(NS(=O)(=O)C(F)(F)F)cc1 [Example 71a, Z-N-[4-[[2-butyl-5-[(3-butyl-2,5-dioxo-4-imidazolidinylidene)methyl]-1H-imidazol-1-1yl]methyl]phenyl]-1,1,1,-trifluoromethanesulfonamide]	3.21
CCCCc1ncc(/C=C2\C(=O)NC(=O)N2CCCC)n1Cc1ccc(NS(=O)(=O)C(F)(F)F)cc1 [Example 71b, E-N-[4-[[2-butyl-5-[(3-butyl-2,5-dioxo-4-imidazolidinylidene)methyl]-1H-imidazol-1-yl]methyl]phenyl]-1,1,1-trifluoromethanesulfonamide]	4.18
CCCCc1ncc(/C=C2/C(=O)N(CCCC)C(=O)N2Cc2sccc2C)n1Cc1ccc(C(=O)OC)cc1 [Example 72, Methyl Z-4-[[2-butyl-5-[[1-butyl-3-[(3-methyl-2-thienyl)methyl]-2,5-dioxo-4-imidazolidinylidene]methyl]-1H-imidazol-1-yl]methyl]benzoate hydrochloride]	23.9
CCCCc1ncc(/C=C2/C(=O)N(CCCC)C(=O)N2Cc2ccc(C)s2)n1Cc1ccc(C(=O)O)cc1 [Example 74, Z-4-[[2-butyl-5-[[1-butyl-3-[(5-methyl-2-thienyl)methyl]-2,5-dioxo-4imidazolidinylidene]methyl]-1H-imidazol-1-yl]methyl]benzoic acid]	0.6
CCCCc1ncc(/C=C2/C(=O)N(CCCC)C(=O)N2Cc2cccs2)n1Cc1ccc(C(=O)O)cc1 [Example 75, Z-4-[[2-butyl-5-[[1-butyl-2,5-dioxo-3-(2-thienylmethyl)-4-imidazolidinylidene]methyl]-1H-imidazol-1-yl]methyl]benzoic acid]	0.64
CCCCc1ncc(/C=C2/C(=O)N(CCCC)C(=O)N2Cc2ccc(Br)s2)n1Cc1ccc(C(=O)OC)cc1 [Example 77, Methyl Z-4-[[5-[[3-[(5-bromo-2-thienyl)methyl]-1-butyl-2,5-dioxo-4-imidazolidinylidene]methyl]-2-butyl-1H-imidazol-1-yl]methyl]benzoate monohydrochloride]	17.8
CCCCc1ncc(/C=C2/C(=O)N(CCCC)C(=O)N2Cc2cc(Br)cs2)n1Cc1ccc(C(=O)OC)cc1 [Example 78, Methyl Z-4-[[5-[[3-[(4-bromo-2-thienyl)methyl]-1-butyl-2,5-dioxo-4-imidazolidinylidene]methyl]-2-butyl-1H-imidazol-1-yl]methyl]benzoate monohydrochloride]	21.9
CCCCc1ncc(/C=C2/C(=O)N(CCCC)C(=O)N2CCc2cccs2)n1Cc1ccc(C(=O)OC)cc1 [Example 79, Methyl Z-4-[[2-butyl-5-[[1-butyl-2,5-dioxo-3-[2(2-thienyl)ethyl]-4-imidazolidinylidene]methyl]-1H-imidazol-1-yl]methyl]benzoate monohydrochloride]	14.5
CCCCc1ncc(/C=C2/C(=O)N(CCCC)C(=O)N2CCc2ccsc2)n1Cc1ccc(C(=O)OC)cc1 [Example 80, Methyl Z-4-[[2-butyl-5-[[1-butyl-2,5-dioxo-3-[2-(3-thienyl)ethyl]-4-imidazolidinylidene]methyl]-1H-imidazol-1-yl]methyl]benzoate monohydrochloride]	14.6
CCCCc1ncc(/C=C2/C(=O)N(CCCC)C(=O)N2Cc2csc(Br)c2)n1Cc1ccc(C(=O)OC)cc1 [Example 81, Methyl Z-4-[[5-[[3-[(5-bromo-3-thienyl)methyl]-1-butyl-2,5-dioxo-4-imidazolidinylidene]methyl]-2-butyl-1H-imidazol-1-yl]methyl]benzoate monohydrochloride]	25.4
CCCCc1ncc(/C=C2\NC(=O)N(CCCC)C2=O)n1Cc1ccc(C2(C(=O)OC)CCCC2)cc1 [Example 83, Methyl Z-1-[4-[[2-butyl-5-[(1-butyl-2,5-dioxo-4-imidazolidinylidene)methyl]-1H-imidazol-1-yl]methyl]phenyl]cyclopentanecarboxylate]	> 1000
CCCCc1ncc(/C=C2/C(=O)N(CCCC)C(=O)N2Cc2csc(C)n2)n1Cc1ccc(C2(C(=O)OC)CCCC2)cc1 [Example 84, Methyl Z-1-[4-[[2-butyl-5-[[1-butyl-[3(2-methyl-4-thiazoly)methyl]-2,5-dioxo-4-imidazolidinylidene]methyl]-1H-imidazol-1-yl]methyl]phenyl]cyclopentane-carboxylate monohydrochloride]	124
CCCCc1ncc(/C=C2/C(=O)N(CCCC)C(=O)N2Cc2csc(C)n2)n1Cc1ccc(C2(C(=O)O)CCCC2)cc1 [Example 85]	1.86
CCCCc1ncc(/C=C2\C(=O)N(Cc3csc(C)n3)C(=O)N2CCCC)n1Cc1ccc(C(=O)OC)cc1 [Example 86, Methyl E-4-[[2-butyl-5-[[3-butyl-1-[(2-methyl-4-thiazolyl)methyl]-2,5-dioxo-4-imidazolidinylidene]methyl]-1H-imidazol-1-yl]methyl]benzoate dihydrochloride]	4.58
CCCCc1ncc(/C=C2/C(=O)N(CC3CC3)C(=O)N2Cc2cccs2)n1Cc1ccc(C(=O)OC)cc1 [Example 89, Methyl Z-4-[[2-butyl-5-[[1-(cyclopropylmethyl)-2,5-dioxo-3-(2-thienylmethyl)-4-imidazolidinylidene]methyl]-1H-imidazol-1-yl]methyl]benzoiate monohydrochloride]	2.59
CCCCc1ncc(/C=C2/C(=O)NC(=O)N2CCCC)n1Cc1ccc(-c2ccccc2-c2nn[nH]n2)cc1 [Example 91, Z-1-Butyl-5-[[2-butyl-3-[[2'-(1H-tetrazol-5-yl)[1,1'-biphenyl]-4-yl]methyl]-3H-imidazol-4-yl]methylene]-2,4-imidazolidinedione]	1.37
CCCCc1ncc(/C=C2\C(=O)NC(=O)N2CCCC)n1Cc1ccc(-c2ccccc2-c2nn[nH]n2)cc1 [Example 92]	2.72
CCCCc1ncc(/C=C2/C(=O)NC(=O)N2C)n1Cc1ccc(-c2ccccc2-c2nnn[nH]2)cc1 [Example 93, Z-5-[[2-butyl-3-[[2'-(1H-tetrazol-5-yl)[1,1 '-biphenyl]-4-yl]methyl]-3H-imidazol-4-yl]methylene]1-methyl-2,4-imidazolidinedione]	5.51
CCCCc1ncc(/C=C2\C(=O)NC(=O)N2C)n1Cc1ccc(-c2ccccc2-c2nnn[nH]2)cc1 [Example 94, E-5-[[2-butyl-3-[[2'-(1H-tetrazol-5-yl)[1,1'-biphenyl]-4-yl]methyl]-3H-imidazol-4-yl]methylene]1-methyl-2,4-imidazolidinedione]	8.57
CCCCc1ncc(CC2C(=O)NC(=O)N2CCCC)n1Cc1ccc(-c2ccccc2-c2nnn[nH]2)cc1 (centres unmarked) [Example 95, 1-Butyl-5-[[2-butyl-3-[[2'-(1H-tetrazol-5-yl)[1,1'-biphenyl]-4yl]methyl]-3H-imidazol-4-yl]methyl]-2,4-imidazolidinedione]	2.67

Second part, the compound after the results:

IC50 [nM]	Compound
3.36	CCCCc1ncc(/C=C2/C(=O)NC(=O)N2CCCC)n1Cc1ccc(-c2nn[nH]n2)cc1 [Example 76a, Z-1-Butyl-5-[[2-butyl-3-[[4-(1H-tetrazol-5-yl)phenyl]methyl]-3H-imidazol-4-yl]methylene]-2,4-imidazolidinedione]
2.48	CCCCc1ncc(/C=C2\C(=O)NC(=O)N2CCCC)n1Cc1ccc(-c2nn[nH]n2)cc1 [Example 76b, E-1-Butyl-5-[[2-butyl-3-[[4-(1H-tetrazol-5-yl)phenyl]methyl]-3H-imidazol-4-yl]methylene]-2,4-imidazolidinedione]
10	CCCCc1ncc(/C=C2/C(=O)NC(=O)N2CCCC)n1Cc1ccc(C(=O)OC)cc1Cl [Example 87a, Methyl Z-4-[[2-butyl-5-[(3-butyl-2,5-dioxo-4-imidazolidinylidene)methyl]-1H-imidazol-1-yl]methyl]-3-chlorobenzoate]
7.32	CCCCc1ncc(/C=C2\C(=O)NC(=O)N2CCCC)n1Cc1ccc(C(=O)OC)cc1Cl [Example 87b]
276	CCCCc1ncc(/C=C2/C(=O)NC(=O)N2CCCC)n1Cc1ccc(C2(C(=O)OC)CCCCC2)cc1 [Example 88a]
528	CCCCc1ncc(/C=C2\C(=O)NC(=O)N2CCCC)n1Cc1ccc(C2(C(=O)OC)CCCCC2)cc1 [Example 88b, Methyl E-1-[4-[[2-butyl-5-[[3-butyl-2,5dioxo-4-imidazolidinylidene]methyl]-1H-imidazol-1-yl]methyl]phenyl]cyclohexanecarboxylate]
15.9	CCCCc1ncc(/C=C2/C(=O)NC(=O)N2CCCC)n1Cc1ccc(-c2ccccc2C(=O)OC)cc1 [Example 96a]
9.86	CCCCc1ncc(/C=C2\C(=O)NC(=O)N2CCCC)n1Cc1ccc(-c2ccccc2C(=O)OC)cc1 [Example 96b, Methyl E 4'-[[2-butyl-5-[(3-butyl-2,5-dioxo-4-imidazolidinylidene)methyl]-1H-imidazol-1-yl]methyl][1,1'-biphenyl]-2-carboxylate]
